Where two headings read alike, the source gives them in different places.
Legend:
[1] = tested on: mantle cell lymphoma (MCL) cell lines; conditions: Eur. J. Med. Chem., 2014, 86, 664-675; cited from earlier work
H3122 Cells = test: MTT cell viability assay, combinations (Chou-Talalay method); assay type: cell-based; conditions: Homo sapiens
Procedure: (§1) The combinations comprising the compound of formula (1) were tested using an MTT proliferation assay in a panel of tumor cell lines of different origins. All culture materials were obtained from the sources described in Example 2. In the Chou-Talalay method, which is the standard, universally known methodology to determine drug interactions, the two drugs under study are maintained at a fixed ratio of IC50 single agent (drug 1):IC50 single agent (drug 2) while the concentration of total amount of drugs in the combination is varied and the 20% (IC20), 50% (IC50) and 80% (IC80) of growth inhibition of the combination is determined.
(§2) In the activity assays on cell lines the following terms are used: • IC50: Drug concentration at which 50% growth inhibition is achieved. • TKI IC50: The IC50 of the tyrosine kinase inhibitor as single agent. • Compound (1) IC50: The IC50 of compound (1) as single agent. • CI@IC20: The combination index of the combination consisting of drug 1 and drug 2 at a weight ratio equal to IC50 of drug 1:IC50 of drug 2 wherein said combination is used at a total amount that achieves 20% of growth inhibition. • CI@IC50: The combination index of the combination consisting of drug 1 and drug 2 at a weight ratio equal to IC50 of drug 1:IC50 of drug 2, wherein said combination is used at a total amount that achieves 50% of growth inhibition. • CI@IC80: The combination index of the combination consisting of drug 1 and drug 2 at a weight ratio equal to IC50 of drug 1:IC50 of drug 2, wherein said combination is used at a total amount that achieves 80% of growth inhibition. • Combination TKI IC50: The combination index at a tyrosine kinase inhibitor concentration that corresponds to the IC50 (single agent). • The combination index (CI) concept was introduced by Chou T.C. and Talalay P.(Chou TC, Talalay P. Adv Enzyme Regul 1984;22:27-55). The derived combination index equation for two drugs is (D = dosage or concentration): CI = ((D)1)/((Dx)1) + ((D)2)/((Dx)2) [formula] where (Dx)1 is the concentration of drug 1 "alone" that inhibits growth at a x% (i.e. (D50)1 is the concentration of drug 1 "alone" that inhibits growth at a 50%), (Dx)2 is the concentration of drug 2 "alone" that inhibits growth at a x%, (D)1 and (D)2 refer to the concentration of drug 1 and drug 2, respectively, in the combination, wherein the combination inhibits growth at the same x%. The CI Value quantitatively defines synergism (CI<1) (in particular, CI values of CI<0.7 indicates strong synergism, 0.7<CI<0.85 indicates moderate synergism, 0.85<CI<1 indicates slight synergism), additive effect (CI=1) and antagonism (CI>1). Based on the above equation, a plot of CI values at different effect levels (fa's) can be determined. Entering a series of "dose" ((D1), (D2), ((Dx)1 and (Dx)2) and % of growth inhibition (%x or effect (fa))" into an excel sheet for each drug alone and their combinations, the CI values at different x% (or fa levels) are obtained using the above equation. This plot is also called the Fa-CI plot or the Chou-Talalay plot.
(§3) Cell viability in response to combination treatment was assessed by the Thiazolyl Blue Tetrazolium Bromide (MTT) (Sigma, St Louis, MO) assay. Cells from each cell line were seeded at 2000 to 10000 per well in 96-well plates. […] Twenty-four hours after seeding, cells were exposed to compound (1), commercial drug or combinations thereof for 72 h. In the Chou-Talalay method, which is the standard, universally known methodology to determine drug interactions, the two drugs under study are maintained at a fixed ratio IC50 single agent (drug 1):IC50 single agent (drug 2).
(§4) After treatment, cells were incubated with medium containing MTT (0.75 mg/mL in medium) for 1-2 h at 37°C. Culture medium with MTT was removed and formazan crystals reabsorbed in 100 µL DMSO (Sigma, St. Louis, MO). Cell viability was determined by measuring the absorbance at 492 nm, using a microplate reader (BioWhittaker, Walkersville, MD).

H2228 Cells = test: as above; assay type: cell-based; conditions: Homo sapiens, NCI-H2228
Procedure: as §1, §2, §3, §4

HCC78 cells = test: as above; assay type: cell-based; conditions: Homo sapiens
Procedure: as §1, §2, §3, §4

IC50 (H3122 Cells; NCI-H3122, 72 h, H3122 cells, compound (1) as single agent, 72 h, read-out: Compound (1) IC50): 1300 nM | IC50 (H3122 Cells; NCI-H3122, H3122 cells, compound (1) in combination with Alectinib, read-out: Combination Compound (1) IC50): 240 nM | IC50 (H3122 Cells; NCI-H3122, H3122 cells, compound (1) in combination with Crizotinib, read-out: Combination Compound (1) IC50): 500 nM | IC50 (H2228 Cells; H2228 cells, compound (1) as single agent, 72 h, read-out: Compound (1) IC50): 809 nM | IC50 (H2228 Cells; read-out: Combination Compound (1) IC50): 410 nM | IC50 (HCC78 cells; HCC78, 72 h, HCC78 cells, compound (1) as single agent, 72 h, read-out: Compound (1) IC50): 800 nM | IC50 (HCC78 cells; HCC78, HCC78 cells, compound (1) in combination with Crizotinib, read-out: Combination Compound (1) IC50): 430 nM | IC50 (HCC78 cells; HCC78, HCC78 cells, compound (1) in combination with Foretinib, read-out: Combination Compound (1) IC50): 210 nM
Compound: Cn1c(=O)c(-c2c(Cl)cccc2Cl)cc2c(N)nc(Nc3ccccc3)nc21 [Compound (1), 4-amino-6-(2,6-dichlorophenyl)-8-methyl-2-(phenylamino)-pyrido[2,3-d]pyrimidin-7(8H)-one]
cytostatic activity [1]: good cytostatic activity

From EP3120851A1, “4-AMINO-6-(2,6-DICHLOROPHENYL)-8-METHYL-2-(PHENYLAMINO)-PYRIDO[2,3-D]PYRIMIDIN-7(8H)-ONE FOR TREATMENT OF SOLID CANCERS” (Pangaea Biotech S.L., priority 2015, dated 2017)
